This assay deals with PD-1/PD-L1 (Homo sapiens, UniProt Q9NZQ7). The assay can be described thus: TR-FRET PD-1/PD-L1 binding inhibition at the molecular level (free proteins). Particulars: Tag1-PD-L1 and Tag2-PD-1 proteins, twelve concentrations from 200 nM, 2 hours at room temperature, read-out: FRET assay (IC50). Summed up:
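HTRF read-out at 665/620 nm after 2 h at room temperature. Detection used anti-Tag1 Eu cryptate plus anti-Tag2 XL665 antibodies. Tagged PD-L1 and PD-1 proteins were pre-mixed with compound across twelve […] 1:2 dilutions starting at 200 nM.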

Each structure is given as a SMILES string.

Chain of PD-1/PD-L1 (Q9NZQ7 19-238 limits assumed): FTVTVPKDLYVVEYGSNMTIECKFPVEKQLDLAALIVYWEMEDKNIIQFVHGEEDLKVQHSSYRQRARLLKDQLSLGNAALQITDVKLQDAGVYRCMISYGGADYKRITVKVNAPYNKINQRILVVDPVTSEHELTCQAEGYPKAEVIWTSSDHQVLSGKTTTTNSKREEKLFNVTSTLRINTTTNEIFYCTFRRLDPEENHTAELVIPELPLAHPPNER

For the compound `O=C(Nc1cccc(-c2cccc(NC(=O)c3cc4n(n3)CCCC4N3CC[C@@H](O)C3)c2Cl)c1Cl)c1ccc(CN2CC[C@@H](O)C2)cn1` (stereo partly drawn) [Compound 101, N-(2,2'-dichloro-3'-(5-(((R)-3-hydroxypyrrolidin-1-yl)methyl)picolinamido)-[1,1'-biphenyl]-3-yl)-4-((R)-3-hydroxypyrrolidin-1-yl)-4,5,6,7-tetrahydropyrazolo[1,5-a]pyridine-2-carboxamide], the IC50 is 10 to 100 nM.

For `CC(=O)NCCNC1CCCn2nc(C(=O)Nc3cccc(-c4cccc(NC(=O)c5ccc(CN6CC[C@@H](O)C6)cn5)c4Cl)c3Cl)cc21` (stereo partly drawn) [Compound 103, 4-((2-acetamidoethyl)amino)-N-(2,2'-dichloro-3'-(5-(((R)-3-hydroxypyrrolidin-1-yl)methyl)picolinamido)-[1,1'-biphenyl]-3-yl)-4,5,6,7-tetrahydropyrazolo[1,5-a]pyridine-2-carboxamide], the IC50 is < 10 nM.

Turning to `O=C(O)CNC1CCCn2nc(C(=O)Nc3cccc(-c4cccc(NC(=O)c5ccc(CN6CC[C@@H](O)C6)cn5)c4Cl)c3Cl)cc21` (stereo partly drawn) [Compound 104, 2-((2-((2,2'-dichloro-3'-(5-(((R)-3-hydroxypyrrolidin-1-yl)methyl)picolinamido)-[1,1'-biphenyl]-3-yl)carbamoyl)-4,5,6,7-tetrahydropyrazolo[1,5-a]pyridin-4-yl)amino)acetic acid], the IC50 is < 10 nM.

For the compound `O=C(Nc1cccc(-c2cccc(NC(=O)c3cc4n(n3)CCCC4N3CC[C@@H](C(=O)O)C3)c2Cl)c1Cl)c1ccc(CN2CC[C@@H](O)C2)cn1` (stereo partly drawn) [Compound 105, (3R)-1-(2-((2,2'-dichloro-3'-(5-(((R)-3-hydroxypyrrolidin-1-yl)methyl)picolinamido)-[1,1'-biphenyl]-3-yl)carbamoyl)-4,5,6,7-tetrahydropyrazolo[1,5-a]pyridin-4-yl)pyrrolidine-3-carboxylic acid], the IC50 is < 10 nM.

`O=C(Nc1cccc(-c2cccc(NC(=O)c3cc4n(n3)CCCC4N3CCC(O)CC3)c2Cl)c1Cl)c1ccc(CN2CC[C@@H](O)C2)cn1` (stereo partly drawn) [Compound 106, N-(2,2'-dichloro-3'-(5-(((R)-3-hydroxypyrrolidin-1-yl)methyl)picolinamido)-[1,1'-biphenyl]-3-yl)-4-(4-hydroxypiperidin-1-yl)-4,5,6,7-tetrahydropyrazolo[1,5-a]pyridine-2-carboxamide]: the IC50 is < 10 nM.

Regarding `O=C(Nc1cccc(-c2cccc(NC(=O)c3cc4n(n3)CCCC4N3CCC(C(=O)O)CC3)c2Cl)c1Cl)c1ccc(CN2CC[C@@H](O)C2)cn1` (stereo partly drawn) [Compound 107, 1-(2-((2,2'-dichloro-3'-(5-(((R)-3-hydroxypyrrolidin-1-yl)methyl)picolinamido)-[1,1'-biphenyl]-3-yl)carbamoyl)-4,5,6,7-tetrahydropyrazolo[1,5-a]pyridin-4-yl)piperidine-4-carboxylic acid], the half-maximal inhibitory concentration (IC50) is 10 to 100 nM.

Regarding `CC(C)(NC1CCCn2nc(C(=O)Nc3cccc(-c4cccc(NC(=O)c5ccc(CN6CC[C@@H](O)C6)cn5)c4Cl)c3Cl)cc21)C(=O)O` (stereo partly drawn) [Compound 108, 2-((2-((2,2'-dichloro-3'-(5-(((R)-3-hydroxypyrrolidin-1-yl)methyl)picolinamido)-[1,1'-biphenyl]-3-yl)carbamoyl)-4,5,6,7-tetrahydropyrazolo[1,5-a]pyridin-4-yl)amino)-2-methylpropanoic acid], the concentration for half-maximal inhibition (IC50) was < 10 nM.

In the case of `Cc1c(NC(=O)c2cc3n(n2)CCCC3O)cccc1-c1cccc(-c2ccc(CNC[C@@H]3CCC(=O)N3)cc2)c1C` (stereo partly drawn) [Compound 109, N-(2,2'-dimethyl-4"-(((((S)-5-oxopyrrolidin-2-yl)methyl)amino)methyl)-[1,1':3',1"-terphenyl]-3-yl)-4-hydroxy-4,5,6,7-tetrahydropyrazolo[1,5-a]pyridine-2-carboxamide], the half-inhibitory concentration (IC50) is < 10 nM.

For `COc1nc(-c2cccc(-c3cccc(NC(=O)c4cc5n(n4)CCCC5O)c3C)c2C)cnc1CNC[C@@H]1CCC(=O)N1` (stereo partly drawn) [Compound 110, 4-hydroxy-N-(3'-(6-methoxy-5-(((((S)-5-oxopyrrolidin-2-yl)methyl)amino)methyl)pyrazin-2-yl)-2,2'-dimethyl-[1,1'-biphenyl]-3-yl)-4,5,6,7-tetrahydropyrazolo[1,5-a]pyridine-2-carboxamide], the IC50 is < 10 nM.

In the case of `O=C1CC[C@@H](CNCc2ccc(-c3cccc(-c4cccc(NC(=O)c5cc6n(n5)CCCC6O)c4Cl)c3Cl)cc2)N1` (stereo partly drawn) [Compound 111, N-(2,2'-dichloro-4"-(((((S)-5-oxopyrrolidin-2-yl)methyl)amino)methyl)-[1,1':3',1"-terphenyl]-3-yl)-4-hydroxy-4,5,6,7-tetrahydropyrazolo[1,5-a]pyridine-2-carboxamide], the IC50 is < 10 nM.

`COc1cc(-c2cccc(-c3cccc(NC(=O)c4cc5n(n4)CCCC5O)c3C)c2C)cc(F)c1CNC[C@@H]1CCC(=O)N1` (stereo partly drawn) [Compound 112, N-(3"-fluoro-5"-methoxy-2,2'-dimethyl-4"-(((((S)-5-oxopyrrolidin-2-yl)methyl)amino)methyl)-[1,1':3',1"-terphenyl]-3-yl)-4-hydroxy-4,5,6,7-tetrahydropyrazolo[1,5-a]pyridine-2-carboxamide]: the 50% inhibitory concentration (IC50) was < 10 nM.

With `COc1cc(-c2cccc(-c3cccc(NC(=O)c4cc5n(n4)CCCC5O)c3C)c2C)cc(F)c1CNCCNC(C)=O` (stereo not drawn) [Compound 112-1, N-(4"-(((2-acetamidoethyl)amino)methyl)-3"-fluoro-5"-methoxy-2,2'-dimethyl-[1,1':3',1"-terphenyl]-3-yl)-4-hydroxy-4,5,6,7-tetrahydropyrazolo[1,5-a]pyridine-2-carboxamide], the IC50 was < 10 nM.

Take `COc1cc(-c2cccc(-c3cccc(NC(=O)c4cc5n(n4)CCCC5O)c3C)c2C)cc(F)c1CN1CC[C@@H](O)C1` (stereo partly drawn) [Compound 113, N-(3"-fluoro-4"-(((R)-3-hydroxypyrrolidin-1-yl)methyl)-5"-methoxy-2,2'-dimethyl-[1,1':3',1"-terphenyl]-3-yl)-4-hydroxy-4,5,6,7-tetrahydropyrazolo[1,5-a]pyridine-2-carboxamide]: the IC50 is < 10 nM.

As to `COc1cc(-c2cccc(-c3cccc(NC(=O)c4cc5n(n4)CCCC5O)c3C)c2C)cc(F)c1CNCCO` (stereo not drawn) [Compound 114, N-(3"-fluoro-4"-(((2-hydroxyethyl)amino)methyl)-5"-methoxy-2,2'-dimethyl-[1,1':3',1 "-terphenyl]-3-yl)-4-hydroxy-4,5,6,7-tetrahydropyrazolo[1,5-a]pyridine-2-carboxamide], the IC50 was < 10 nM.

Regarding `COc1cc(-c2cccc(-c3cccc(NC(=O)c4cc5n(n4)CCCC5N4CC[C@@H](O)C4)c3C)c2C)cc(F)c1CNC(C)(C)C(=O)O` (stereo partly drawn) [Compound 115, 2-(((3-fluoro-3"-(4-((R)-3-hydroxypyrrolidin-1-yl)-4,5,6,7-tetrahydropyrazolo[1,5-a]pyridine-2-carboxamido)-5-methoxy-2',2"-dimethyl-[1,1':3',1"-terphenyl]-4-yl)methyl)amino)-2-methylpropanoic acid], the IC50 is < 10 nM.

For the compound `COc1cc(-c2cccc(-c3cccc(NC(=O)c4cc5n(n4)CCCC5O)c3Cl)c2Cl)cc(F)c1CNCCNC(C)=O` (stereo not drawn) [Compound 116, N-(4"-(((2-acetamidoethyl)amino)methyl)-2,2'-dichloro-3"-fluoro-5"-methoxy-[1,1':3',1"-terphenyl]-3-yl)-4-hydroxy-4,5,6,7-tetrahydropyrazolo[1,5-a]pyridine-2-carboxamide], the 50% inhibitory concentration (IC50) was 10 to 100 nM.

Turning to `COc1cc(-c2cccc(-c3cccc(NC(=O)c4cc5n(n4)CCCC5O)c3Cl)c2Cl)cc(F)c1CN1CC[C@@H](O)C1` (stereo partly drawn) [Compound 117, N-(2,2'-dichloro-3"-fluoro-4"-(((R)-3-hydroxypyrrolidin-1-yl)methyl)-5"-methoxy-[1,1':3',1"-terphenyl]-3-yl)-4-hydroxy-4,5,6,7-tetrahydropyrazolo[1,5-a]pyridine-2-carboxamide], the IC50 lay within 10 to 100 nM.

As for `COc1cc(-c2cccc(-c3cccc(NC(=O)c4cc5n(n4)CCCC5O)c3Cl)c2Cl)cc(F)c1CNCCO` (stereo not drawn) [Compound 118, N-(2,2'-dichloro-3"-fluoro-4"-(((2-hydroxyethyl)amino)methyl)-5"-methoxy-[1,1':3',1"-terphenyl]-3-yl)-4-hydroxy-4,5,6,7-tetrahydropyrazolo[1,5-a]pyridine-2-carboxamide], the half-inhibitory concentration (IC50) fell in the range of 10 to 100 nM.

In the case of `COc1cc(-c2cccc(-c3cccc(NC(=O)c4cc5n(n4)CCCC5O)c3Cl)c2Cl)cc(F)c1CNC[C@@H]1CCC(=O)N1` (stereo partly drawn) [Compound 119, N-(2,2'-dichloro-3"-fluoro-5"-methoxy-4"-(((((S)-5-oxopyrrolidin-2-yl)methyl)amino)methyl)-[1,1':3',1"-terphenyl]-3-yl)-4-hydroxy-4,5,6,7-tetrahydropyrazolo[1,5-a]pyridine-2-carboxamide], the IC50 is 10 to 100 nM.

As to `COc1cc(-c2cccc(-c3cccc(NC(=O)c4cc5n(n4)CCCC5NCCO)c3Cl)c2Cl)cc(F)c1CNCCNC(C)=O` (stereo not drawn) [Compound 120, N-(4"-(((2-acetamidoethyl)amino)methyl)-2,2'-dichloro-3"-fluoro-5"-methoxy-[1,1':3',1"-terphenyl]-3-yl)-4-((2-hydroxyethyl)amino)-4,5,6,7-tetrahydropyrazolo[1,5-a]pyridine-2-carboxamide], the 50% inhibitory concentration (IC50) was < 10 nM.

With `COc1cc(-c2cccc(-c3cccc(NC(=O)c4cc5n(n4)CCCC5N4CC[C@@H](O)C4)c3Cl)c2Cl)cc(F)c1CNCCNC(C)=O` (stereo partly drawn) [Compound 121, N-(4"-(((2-acetamidoethyl)amino)methyl)-2,2'-dichloro-3"-fluoro-5"-methoxy-[1,1':3',1"-terphenyl]-3-yl)-4-((R)-3-hydroxypyrrolidin-1-yl)-4,5,6,7-tetrahydropyrazolo[1,5-a]pyridine-2-carboxamide], the IC50 is < 10 nM.

(Values after patent EP4755888A1 (ILAb Co., Ltd., priority 2023, dated 2025).)
